Experimental findings from patent US20060003993A1, “Benzotriazepnes as gastrin and cholecystokinin receptor ligands” (James Black Foundation Limited, priority 2001, published 2006) are described below.

For one experiment, the target named is T1, gastrin (CCK2) receptors (Rattus norvegicus, UniProt P30553).
T1 construct: The stomach was excised and flushed with ca. 1 ml of unbuffered physiological saline solution; from tissue; host or cells: isolated lumen-perfused stomach of immature rats (ca. 21 days old)
T1 sequence (P30553 1-452): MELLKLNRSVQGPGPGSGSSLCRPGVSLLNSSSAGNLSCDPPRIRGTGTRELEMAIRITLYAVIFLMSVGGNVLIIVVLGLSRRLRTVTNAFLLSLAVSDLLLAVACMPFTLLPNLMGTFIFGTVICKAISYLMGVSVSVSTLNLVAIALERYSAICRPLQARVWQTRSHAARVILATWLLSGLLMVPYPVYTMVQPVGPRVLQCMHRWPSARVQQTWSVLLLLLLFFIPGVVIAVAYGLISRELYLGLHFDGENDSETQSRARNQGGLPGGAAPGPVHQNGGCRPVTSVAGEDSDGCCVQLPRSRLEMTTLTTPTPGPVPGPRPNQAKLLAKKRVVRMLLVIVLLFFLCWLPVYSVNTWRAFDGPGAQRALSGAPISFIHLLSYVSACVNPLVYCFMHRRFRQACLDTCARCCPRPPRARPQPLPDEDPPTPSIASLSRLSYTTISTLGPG
As to the kind of experiment: immature rat stomach assay, gastrin (CCK2) antagonist activity. Conditions: pentagastrin dose-response curves, acid secretion. Format: cell-based. Here is the method: The compounds of the examples were tested for gastrin (CCK2) antagonist activity in an immature rat stomach assay. The procedure was as follows:
The oesophagus of immature rats (33-50 g, ca. 21 days old) was ligated at the level of the cardiac sphincter and the duodenal sphincter was cannulated. The stomach was excised and flushed with ca. 1 ml of unbuffered physiological saline solution. The fundus was punctured and cannulated. A further 4-5 ml of unbuffered solution was flushed through the stomach to ensure the preparation was not leaking. […] The stomach was continuously perfused at a rate of 1 ml min^−1 with unbuffered solution gassed with 100% O2 with the perfusate passing over an internally referenced pH-electrode fixed 12 cm above the stomach.
After 120 min of stabilisation the drugs were added directly to the serosal solution in the organ bath and after a further 60 min cumulative pentagastrin dose-response curves were started.

Experiment [1] deals with T2, human gastrin (CCK2) receptors (Homo sapiens, UniProt P32239).
T2 construct: amplified by PCR (polymerase chain reaction) from the start codon to the stop codon; expressed in transfected cells
T2 sequence (P32239 1-447): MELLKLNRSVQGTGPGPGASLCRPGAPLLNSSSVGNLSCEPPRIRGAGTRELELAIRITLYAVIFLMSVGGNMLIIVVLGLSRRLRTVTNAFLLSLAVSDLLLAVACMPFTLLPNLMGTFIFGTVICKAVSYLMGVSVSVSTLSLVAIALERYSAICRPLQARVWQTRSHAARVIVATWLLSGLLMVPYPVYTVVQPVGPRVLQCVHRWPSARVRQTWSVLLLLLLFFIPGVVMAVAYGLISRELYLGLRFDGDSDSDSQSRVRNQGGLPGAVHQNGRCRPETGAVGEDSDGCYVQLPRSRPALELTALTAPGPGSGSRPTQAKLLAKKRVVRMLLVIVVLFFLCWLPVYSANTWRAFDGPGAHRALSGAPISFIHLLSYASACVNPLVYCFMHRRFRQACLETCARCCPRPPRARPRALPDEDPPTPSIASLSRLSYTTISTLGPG
As to the kind of experiment: [125I]-BH-CCK-8S competition binding at human CCK2 receptors cloned into NIH3T3 cells. Particulars: hCCK2 receptor, NIH3T3 clone 7 membranes, [125I]-BH-CCK-8S 200 pM, 150 min at 21° C.
Description: Step a: Subcloning of IMAGE Clone Encoding the Human CCK2R into a Mammalian Expression Vector
I.M.A.G.E. (Integrated Molecular Analysis of Genomes and their Expression) clone number 3504160 (Lennon et al. Genomics 33, 151-152 (1996)) was purchased from the HGMP (Human Genome Mapping Project, Cambridge). The cDNA encoding the mRNA for the human CCK2R, corresponding to accession number BC000740, was present in vector pOTB7 in host cell DH10B. The cells, initially streaked on to LB-Agar plates containing 20 μg/ml chloramphenicol, were then grown in LB containing 20 μg/ml chloramphenicol with shaking at 37° C. according to standard techniques (Current Protocols in Molecular Biology, Wiley). DNA was prepared using the QIAGEN® EndoFree™ plasmid Maxi kit (Qiagen Ltd.) according to the manufacturer's protocol. The DNA was then amplified by PCR (polymerase chain reaction) from the start codon to the stop codon using primers containing restriction sites, Eco R1 and Xba I respectively, to facilitate uni-directional cloning. […]
The PCR product was purified using the QIAGEN® MinElute™ PCR purification kit, according to the manufacturer's instructions. […] The digested DNA bands of the correct size, analysed by ethidium bromide stained agarose/TBE gels, were excised and purified using QIAGEN@ MinElute™ gel extraction kit, according to the manufacturer's instructions. […]

In turn, `CNc1cc(NC(=O)CN2N=C(C3CCCCC3)c3ccccc3N(CC(O)C(C)(C)C)C2=O)cc(C(=O)OC)c1` (stereo not drawn) [Example 78] came in with a pKB rat stomach at gastrin (CCK2) receptors of 6.49 ± 0.33. On to `Cc1cccc(NC(=O)N[C@@H]2N=C(c3ccccc3)c3ccccc3N(CC(=O)c3ccccc3C)C2=O)c1` [YM022], for which, in experiment [1], the “pKi ± s.e.mean” value is 10.19 ± 0.03. On to `Cc1cccc2c1C(C1CCCCC1)=NN(CC(=O)Nc1cccc(C(=O)O)c1)C(=O)N2CC(=O)C(C)(C)C` [Example 114], for which the pKB rat stomach at gastrin (CCK2) receptors is 7.45 ± 0.43.
